Like-named read-outs stand apart in the source and are kept apart here.
How the values were obtained:
[1] = system: eosinophilic skin condition in cats; conditions: for SIGNS plaque-granuloma-miliary scabs % improved / SIGNS plaque-granuloma-miliary scabs % unchanged / SIGNS plaque-granuloma-miliary scabs % worsened / SYMPTOMS pruritis-erythema-alopecia % improved / SYMPTOMS pruritis-erythema-alopecia % unchanged / SYMPTOMS pruritis-erythema-alopecia % worsened: cats
Procedure: Included in the investigation were 15 cats of European race with short hair, of which 9 were female and 6 were male, with ages of between 7 and 123 months. […] A numerical evaluation relating to the intensity and location of the signs and symptoms was assigned to each individual animal in accordance with the P.A.S.I. (psoriasis area severity index) “score” (Marks R. et al., 1989, Arch. Dermatol., 125:235-240). The improvements in the clinical signs and in the associated lesions were evaluated on the 15th and 30th days of treatment. The treatment consisted of a preparation in accordance with Example 3 of the pharmaceutical preparations given below, containing 120 mg of micronized N-palmitoylethanolamide. The active ingredient was administered in a proportion of 10 mg/kg/die for 30 days.

[2] = Particle size analysis of micronized PEA (Mastersizer); type: physicochemical
Procedure: The micronization of PEA and its co-micronization with excipients were performed with compressed-air turbine micronizing apparatus. This apparatus is known and is not therefore described in greater detail. The product obtained was subjected to analysis of the particles with Mastersizer, μ version apparatus from Malvern Instruments Co. UK.

Row | Compound | side effects compared with cortisones ([1]; in vivo) | quantity % of particles <6μ ([2]; particle size <6μ) | quantity % of particles <10μ ([2]; particle size <10μ) | quantity % of particles >14μ ([2]; particle size >14μ) | SIGNS plaque-granuloma-miliary scabs % improved ([1]; T15 (15th day of treatment)) | SIGNS plaque-granuloma-miliary scabs % unchanged ([1]; T15 (15th day of treatment)) | SIGNS plaque-granuloma-miliary scabs % worsened ([1]; T15 (15th day of treatment)) | SYMPTOMS pruritis-erythema-alopecia % improved ([1]; T15 (15th day of treatment)) | SYMPTOMS pruritis-erythema-alopecia % unchanged ([1]; T15 (15th day of treatment)) | SYMPTOMS pruritis-erythema-alopecia % worsened ([1]; T15 (15th day of treatment)) | SIGNS plaque-granuloma-miliary scabs % improved ([1]; T30 (30th day of treatment)) | SIGNS plaque-granuloma-miliary scabs % unchanged ([1]; T30 (30th day of treatment)) | SIGNS plaque-granuloma-miliary scabs % worsened ([1]; T30 (30th day of treatment)) | SYMPTOMS pruritis-erythema-alopecia % improved ([1]; T30 (30th day of treatment)) | SYMPTOMS pruritis-erythema-alopecia % unchanged ([1]; T30 (30th day of treatment)) | SYMPTOMS pruritis-erythema-alopecia % worsened ([1]; T30 (30th day of treatment))
1 | CCCCCCCCCCCCCCCC(=O)NCCO [PEA, N-palmitoylethanolamide] | does not have the serious side effects typical of these drugs | 80% | ~96% approx. | traces |  |  |  |  |  |  |  |  |  |  |  | 
2 | CCCCCCCCCCCCCCCC(=O)NCCO [non-micronized PEA, N-palmitoylethanolamide] |  |  |  |  | 14.6% | 85.4% | 0% | 8.2% | 91.8% | 0% | 51.4% | 48.6% | 0% | 52% | 48% | 0%

Reference: patent publication US6548550B1, “Pharmaceutical compositions containing N-palmitoylethanolamide and use thereof in the veterinary field” (Innovet Italia S.r.l., priority 2002, dated 2003)
